# Experimental data from article PMC4285699 (Journal of molecular biology, 2009).
# What was measured:
# [1] = biological target: T1, HIV-1 RT-associated RNase H activity (polymerase-independent) (Human immunodeficiency virus type 1 group M subtype B, UniProt P03366); test: biochemical; details: IC50, primary cleavage, 600 nM chimeric hybrid labelled at 3' DNA end, 50 nM RT
# p66^501BpF/p51 RT = p66^501BpF/p51 RT (Human immunodeficiency virus type 1, UniProt P03366, Y1100X); test: FRET-based RNase H assay; type: biochemical, HIV-1
# p66^AzF/p51 RT = test: FRET-based RNase H assay; type: biochemical, HIV-1; details: azido function at position 501 (AzF)
# [2] = biological target: HIV-1 RT-associated RNase H activity (Human immunodeficiency virus type 1 group M subtype B, UniProt P03366); test: Pre-steady-state single turnover RNase H reactions; type: biochemical; details: PFA 0-10 μM, dTMP-terminated primer
# [3] = biological target: T1, HIV-1 RT-associated RNase H activity (polymerase-independent); type: biochemical; details: PFA 200 μM; chimeric substrate PBS-14r8d, 0-40 min
Structure (SMILES),IC50 [1] [µM],IC50 (p66^501BpF/p51 RT) [µM],Effect of mutation on β-thujaplicinol sensitivity (p66^AzF/p51 RT),Position of RNase H cleavage with increasing ligand concentration [2],Inhibition of polymerase-independent RNase H cleavage [3]
CC(C)c1ccc(O)c(=O)c(O)c1 [β-thujaplicinol],> 25,> 300,little to no effect,,
"O=C(O)P(=O)(O)O [PFA, Phosphonoformic acid]",,,,biased cleavage to position -19,does not inhibit RNase H cleavage
